Measured values published in publication PMC5855801, “Benzothiophenone Derivatives Targeting Mutant Forms of Estrogen Receptor-α in Hormone-Resistant Breast Cancers” (International Journal of Molecular Sciences, 2018).

Columns and labels:
[1] = system: TamR3 cells (tamoxifen-resistant MCF7-derived); experiment: Presto Blue cell viability assay, TamR3; type: cell-based, human; conditions: TamR3, 96 h, two-fold dilution starting at 50 µM
Experimental: The Presto Blue cell viability assay was used to assess the growth inhibitory potential of VPC-16606 on ERα^+ T47D, MCF7, ZR75-1 and TamR3 cells. They were treated for 96 h with a two-fold dilution range of the compound starting at 50 µM.
Cell viability was determined using the Presto Blue cell viability assay (Thermo Fisher Scientific, Waltham, MA, USA). Cells were seeded in clear bottom black-walled 96-well plates at a density of 5 × 10^3 cells/well in 100 μL of their respective media. On the following day, the cells were treated with test compounds (0.001–22.5 μM) in the presence of 1 nM E2 and incubated at 37 °C. After 96 h, 30 μL of Presto Blue reagent was added and incubated for 10 min at 37 °C. The fluorescent signal from viable cells was measured at 590 nm.

[2] = biological target: T1, ERα (Homo sapiens, UniProt P03372); experiment: Estrogen-responsive luciferase reporter transcriptional assay in T47DKBluc cells; type: cell-based; conditions: 1 nM E2, 24 h, read-out: IC50 against ERα in the luciferase reporter-based transcriptional assay
T1 construct: endogenous in cells; host or cells: T47DKBluc (ATCC CRL-2865)
T1 sequence (P03372 1-595): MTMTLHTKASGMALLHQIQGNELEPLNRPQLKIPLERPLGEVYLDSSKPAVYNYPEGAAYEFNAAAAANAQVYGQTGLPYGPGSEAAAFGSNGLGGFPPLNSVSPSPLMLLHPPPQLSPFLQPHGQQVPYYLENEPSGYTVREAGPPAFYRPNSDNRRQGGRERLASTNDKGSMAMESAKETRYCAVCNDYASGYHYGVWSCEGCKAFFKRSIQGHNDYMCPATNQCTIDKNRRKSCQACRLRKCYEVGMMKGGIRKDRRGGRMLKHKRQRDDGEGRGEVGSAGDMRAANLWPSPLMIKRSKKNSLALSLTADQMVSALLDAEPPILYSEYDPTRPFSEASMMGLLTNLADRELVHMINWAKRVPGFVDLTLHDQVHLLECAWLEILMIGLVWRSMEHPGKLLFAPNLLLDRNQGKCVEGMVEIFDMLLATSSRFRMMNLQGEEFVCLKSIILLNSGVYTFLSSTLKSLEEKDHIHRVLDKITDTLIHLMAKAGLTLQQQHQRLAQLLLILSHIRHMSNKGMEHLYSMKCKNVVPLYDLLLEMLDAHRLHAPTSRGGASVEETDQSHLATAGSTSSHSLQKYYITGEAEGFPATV
Experimental: T47DKBluc cells (ATCC® CRL-2865^TM, Manassa, VA, USA) stably transfected with a 3X-ERE–promoter–luciferase reporter gene construct, pGL2.TATA.Inr.luc.neo [38], were used to measure inhibition of ERα-driven transcriptional activity of the luciferase reporter.
This assay was performed as described previously. Briefly, ERα-positive T47DKBluc cells were grown in phenol red-free RPMI 1640 supplemented with 10% CSS for 5 days. The cells were seeded on 96-well plates (2 × 10^4 cells/well). After 24 h, the cells were treated with test compounds in the presence of 1 nM E2. Twenty four hours post-treatment, the cells were lysed with 50 μL of 1× passive lysis buffer (Promega, Madison, WI, USA). Twenty microliters of the lysate from each treatment were transferred onto a white, 96-well, flat-bottomed plate (Corning Life Sciences, Corelle, NY, USA), and the luminescent signal was measured after adding 50 μL of the luciferase assay reagent (Promega, Madison, WI, USA) on a Tecan M200Pro microplate reader (Tecan, Menedorf, Switzerland). Differences in growth were normalised against total protein concentration, which was measured by the bicinchoninic acid (BCA) assay.

[3] = system: ERα binding to the pS2 enhancer; experiment: Chromatin immunoprecipitation (ChIP) in MCF7 cells; type: cell-based, human; conditions: MCF7, 6 μM, 24 h, 1 nM E2, compared to E2 alone
Experimental: To test this hypothesis, we performed chromatin immunoprecipitation (ChIP) assays in MCF7 cells. The cells were treated for 24 h with vehicle and E2 either alone or in combination with VPC-16606.
E2-deprived MCF7 cells (1 × 10^7 cells per 10 cm plate) were treated for 24 h with DMSO alone, DMSO + E2 or compound + E2. One percent formaldehyde was added for 10 min at room temperature to perform DNA-protein crosslinking and quenched by treatment with 125 mM glycine for 5 min. Cell lysates sonicated with Sonic Dismembrator 550 instrument (Thermo Fisher Scientific, Waltham, MA, USA) to yield DNA fragments of 200–1000 bp in size. Lysates (from 3.3 × 10^6 cells) were immunoprecipitated with […] of anti-ERα antibody or […] of rabbit isotype control IgG (Santa Cruz Biotechnology, Dallas, TX, USA) using the EZ-ChIP chromatin immunoprecipitation kit (Millipore, Billerica, MA, USA). Bound DNA was quantified by qPCR (SYBR Green master mix, Invitrogen, Carlsbad, CA, USA) using the following primer sets: pS2 enhancer, forward 5′-[…]-3′ and reverse 5′-AGGGCGTGACACCAGGAAA-3′; GAPDH promoter, forward 5′-[…]-3′ and reverse 5′-TCGAACAGGAGCAGA GAGCGA-3′. The qPCR results are presented as fold enrichment of PCR amplification over control IgG antibody and normalized based on the total input (no precipitated chromatin). Primers for the GAPDH promoter were used as a negative control.

## CC(=O)N(/N=C1\Sc2c(C)cccc2C1=O)c1ccccc1Cl [VPC-16606]
[1]
  Cell growth (Presto Blue viability): significantly reduce the growth
[2]
  IC50: 300 nM
[3]
  ERα pull down of the promoter of pS2 (ChIP): significantly reduced
